According to PubChem BioAssay AID1963836 (Molecular Pharmacology Branch, DTP, NCI, 2024):

Test system: 857933-349-R-J2-PDC complex spheroid viability
Assay: Anticancer human tumor 857933-349-R-J2-PDC patient-derived colon adenocarcinoma cell line growth inhibition [POLQ]
Conditions: for IC50: curve of first compound; for viability, T/C: stronger effect = lower value; active = viability on the fitted dose curve at most 10% of control; inactive = the rest
Summary of the method: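 PDC + HUVEC + MSC complex spheroids; POLQ inhibitors ± partner drugs; top conc. at/near clinical Cmax, else 10 microM (SN-38 1 microM), half-log dilutions; 37 degrees C, 5% CO2.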

[1] = second compound 0.0316 µM, first compound 0.00316 µM
[2] = second compound 0.0316 µM, first compound 0.01 µM
[3] = second compound 0.0316 µM, first compound 0.0316 µM
[4] = second compound 0.0316 µM, first compound 0.1 µM
[5] = second compound 0.0316 µM, first compound 0.316 µM
[6] = second compound 0.0316 µM, first compound 1 µM
[7] = second compound 0.1 µM, first compound 0.00316 µM
[8] = second compound 0.1 µM, first compound 0.01 µM
[9] = second compound 0.1 µM, first compound 0.0316 µM
[10] = second compound 0.1 µM, first compound 0.1 µM
[11] = second compound 0.1 µM, first compound 0.316 µM
[12] = second compound 0.1 µM, first compound 1 µM
[13] = second compound 0.316 µM, first compound 0.00316 µM
[14] = second compound 0.316 µM, first compound 0.01 µM
[15] = second compound 0.316 µM, first compound 0.0316 µM
[16] = second compound 0.316 µM, first compound 0.1 µM
[17] = second compound 0.316 µM, first compound 0.316 µM
[18] = second compound 0.316 µM, first compound 1 µM
[19] = second compound 1 µM, first compound 0.00316 µM
[20] = second compound 1 µM, first compound 0.01 µM
[21] = second compound 1 µM, first compound 0.0316 µM
[22] = second compound 1 µM, first compound 0.1 µM
[23] = second compound 1 µM, first compound 0.316 µM
[24] = second compound 1 µM, first compound 1 µM
[25] = second compound 3.16 µM, first compound 0.00316 µM
[26] = second compound 3.16 µM, first compound 0.01 µM
[27] = second compound 3.16 µM, first compound 0.0316 µM
[28] = second compound 3.16 µM, first compound 0.1 µM
[29] = second compound 3.16 µM, first compound 0.316 µM
[30] = second compound 3.16 µM, first compound 1 µM
[31] = second compound 10 µM, first compound 0.00316 µM
[32] = second compound 10 µM, first compound 0.01 µM
[33] = second compound 10 µM, first compound 0.0316 µM
[34] = second compound 10 µM, first compound 0.1 µM
[35] = second compound 10 µM, first compound 0.316 µM
[36] = second compound 10 µM, first compound 1 µM
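Also: spheroids exposed to compounds for seven days before readout.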

C=CCn1c(=O)c2cnc(Nc3ccc(N4CCN(C)CC4)cc3)nc2n1-c1cccc(C(C)(C)O)n1 + COC1C(OC(N)=O)C(O)C(Oc2ccc3c(O)c(NC(=O)c4ccc(O)c(CC=C(C)C)c4)c(=O)oc3c2C)OC1(C)C
inactive: viability, T/C [1] 89.8% | viability, T/C [2] 96.5% | viability, T/C [3] 76.7% | viability, T/C [4] 81.7% | viability, T/C [5] 84.6% | viability, T/C [6] 80.9% | viability, T/C [7] 97.9% | viability, T/C [8] 106% | viability, T/C [9] 112% | viability, T/C [10] 89.4% | viability, T/C [11] 74.3% | viability, T/C [12] 64.7% | viability, T/C [13] 92.4% | viability, T/C [14] 95.3% | viability, T/C [15] 91% | viability, T/C [16] 78.8% | viability, T/C [17] 79.2% | viability, T/C [18] 64.1% | viability, T/C [19] 102% | viability, T/C [20] 80.4% | viability, T/C [21] 88.7% | viability, T/C [22] 87.3% | viability, T/C [23] 95.8% | viability, T/C [24] 61.8% | viability, T/C [25] 92% | viability, T/C [26] 86.6% | viability, T/C [27] 74.6% | viability, T/C [28] 74.2% | viability, T/C [29] 91.1% | viability, T/C [30] 77.5% | viability, T/C [31] 83.8% | viability, T/C [32] 86.8% | viability, T/C [33] 91.8% | viability, T/C [34] 72.5% | viability, T/C [35] 83.9% | viability, T/C [36] 67.5%
> 1000 nM: IC50 (second compound 0.0316 µM) | IC50 (second compound 0.1 µM) | IC50 (second compound 0.316 µM) | IC50 (second compound 1 µM) | IC50 (second compound 3.16 µM) | IC50 (second compound 10 µM)

CCc1c2c(nc3ccc(O)cc13)-c1cc3c(c(=O)n1C2)COC(=O)[C@]3(O)CC + COC1C(OC(N)=O)C(O)C(Oc2ccc3c(O)c(NC(=O)c4ccc(O)c(CC=C(C)C)c4)c(=O)oc3c2C)OC1(C)C
19.9 nM: IC50 (second compound 0.0316 µM)
17.5 nM: IC50 (second compound 0.316 µM)
9.42 nM: IC50 (second compound 10 µM)
12.5 nM: IC50 (second compound 1 µM)
19.4 nM: IC50 (second compound 0.1 µM)
inactive: viability, T/C [1] 84.5% | viability, T/C [2] 71.7% | viability, T/C [3] 32.1% | viability, T/C [4] 25.3% | viability, T/C [5] 17.5% | viability, T/C [6] 5.52% | viability, T/C [7] 88.3% | viability, T/C [8] 76.1% | viability, T/C [9] 29.7% | viability, T/C [10] 20.2% | viability, T/C [11] 14.1% | viability, T/C [12] 4.89% | viability, T/C [13] 92.3% | viability, T/C [14] 71.7% | viability, T/C [15] 26.3% | viability, T/C [16] 17.3% | viability, T/C [17] 15.2% | viability, T/C [18] 5.5% | viability, T/C [19] 89% | viability, T/C [20] 56.6% | viability, T/C [21] 22.9% | viability, T/C [22] 16.7% | viability, T/C [23] 16.2% | viability, T/C [24] 5.68% | viability, T/C [25] 84.8% | viability, T/C [26] 62.8% | viability, T/C [27] 29.8% | viability, T/C [28] 22.4% | viability, T/C [29] 12.5% | viability, T/C [31] 80.6% | viability, T/C [32] 42.7% | viability, T/C [33] 35% | viability, T/C [34] 16.2% | viability, T/C [35] 12.2%
15.8 nM: IC50 (second compound 3.16 µM)
active: viability, T/C [30] 6.77% | viability, T/C [36] 4.37%

COc1cc(C2c3cc4c(cc3C(OC3OC5COC(C)OC5C(O)C3O)C3COC(=O)C23)OCO4)cc(OC)c1O (stereo unspecified) + COC1C(OC(N)=O)C(O)C(Oc2ccc3c(O)c(NC(=O)c4ccc(O)c(CC=C(C)C)c4)c(=O)oc3c2C)OC1(C)C
inactive: viability, T/C [3] 80.7% | viability, T/C [4] 88.3% | viability, T/C [5] 51.3% | viability, T/C [6] 46.2% | viability, T/C (second compound 0.0316 µM, first compound 3.16 µM) 36.1% | viability, T/C (second compound 0.0316 µM, first compound 10 µM) 28.7% | viability, T/C [9] 71.1% | viability, T/C [10] 84.7% | viability, T/C [11] 53.5% | viability, T/C [12] 42.3% | viability, T/C (second compound 0.1 µM, first compound 3.16 µM) 35.5% | viability, T/C (second compound 0.1 µM, first compound 10 µM) 30.4% | viability, T/C [15] 74.1% | viability, T/C [16] 79.3% | viability, T/C [17] 54.6% | viability, T/C [18] 41% | viability, T/C (second compound 0.316 µM, first compound 3.16 µM) 34.7% | viability, T/C (second compound 0.316 µM, first compound 10 µM) 29.9% | viability, T/C [21] 81.9% | viability, T/C [22] 71.3% | viability, T/C [23] 54.6% | viability, T/C [24] 39.6% | viability, T/C (second compound 1 µM, first compound 3.16 µM) 34.2% | viability, T/C (second compound 1 µM, first compound 10 µM) 29.9% | viability, T/C [27] 88.2% | viability, T/C [28] 99% | viability, T/C [29] 52.1% | viability, T/C [30] 37.5% | viability, T/C (second compound 3.16 µM, first compound 3.16 µM) 30.3% | viability, T/C (second compound 3.16 µM, first compound 10 µM) 30.1% | viability, T/C [33] 94.5% | viability, T/C [34] 65.7% | viability, T/C [35] 54.6% | viability, T/C [36] 39.8% | viability, T/C (second compound 10 µM, first compound 3.16 µM) 37.6% | viability, T/C (second compound 10 µM, first compound 10 µM) 32.1%
399 nM: IC50 (second compound 0.1 µM)
453 nM: IC50 (second compound 1 µM)
488 nM: IC50 (second compound 0.316 µM)
358 nM: IC50 (second compound 3.16 µM)
386 nM: IC50 (second compound 10 µM)
352 nM: IC50 (second compound 0.0316 µM)
